Two molecules from EP3318253B1, “COMPOSITIONS COMPRISING WNT INHIBITORS FOR TREATING CANCER” (Schmidt-Wolf, Ingo, priority 2010, dated 2012) can be followed below.

For experiment [1], the system named is lymphoma and myeloma cell lines. Nature of the experiment: Titration of the optimal concentration. Conditions: without significantly deteriorating viability of normal PBMCs, data not shown. The experiment is classed as cell-based, human. The text has this: As a first step, we determined the optimal concentration of EA in various lymphoma and myeloma cell lines. Subsequently, we determined the optimal concentration of EA in PBMCs derived from healthy individuals in order to check for toxicity. […] The effect of DMSO as a toxic solvent was only observed in the myeloma cell line OPM-2 (Figure 1C). As a control, peripheral blood mononuclear cells (PBMCs) were investigated by FACS analysis. A toxic effect affecting the cells induced a shift from viable, DiOC6-positive cells to apoptotic, DiOC6-negative cells.
(§1) Experiments were performed as reported recently.
As a first step, we determined the optimal concentration of CIC in various lymphoma and myeloma cell lines. Subsequently, we determined the optimal concentration of CIC in PBMCs derived from healthy individuals in order to check for toxicity. […] The effect of DMSO as a toxic solvent was only observed in the myeloma cell line OPM-2 (Fig. 7C). As a control, peripheral blood mononuclear cells (PBMCs) were investigated by FACS analysis. A toxic effect affecting the cells induced a shift from viable, DiOC6-positive cells to apoptotic, DiOC6-negative cells.

The test system of another experiment is MPC11 myeloma cells. Conditions: 750 µg lenalidomide/day. On the procedure: All animal experiments were done at least in duplicate with groups of 6 BALB/c mice (Charles River, Sulzfeld, Germany). 5x10^5 MCP11 murine myeloma cells were injected per mouse subcutaneously into Balb/c mice. […] Overall survival and tumor growth were measured. Tumor volume was calculated as follows: volume = length x width^2 x 0,52. Animals were killed when tumor volume reached 2000 mm^3.
• Figure 1. […] 1x10^5 cells were cultured with different compounds for three days. The concentration of thalidomide was U266 160µM for U266, RPMI 20µM for RPMI, and OPM 40µM for OPM cells. Then cell viability was measured by DIOC6 staining in flow cytometry. Results represent data from three, two and five separate experiments, respectively. Separate U266 n=3, RPMI n=2, OPM n=5 experiments. Data are shown as mean ± SD. • Figure 2. […] 1x10^5 OPM cells were cultured with the different compounds for three days. The concentration of lenalidomide was 12µM for OPM and 80µM for RPMI cells. Then cell viability was measured by DIOC6 staining in flow cytometry. Results represent data from eight and five OPM n=8, RPMI n=5 separate experiments, respectively. Data are shown as mean ± SD. • Figure 3. […] (A) Flow cytometric results. […] Western Blot analysis for the detection of β-catenin in myeloma cell lines under normal conditions. The myeloma cell lines RPMI 8226, KMS-18 and U266 were analyzed according to their β-catenin expression. • Figure 4B. […] As primary antibodies purified mouse anti-β-catenin and β-actin were used at a dilution of 1:1000 and as secondary antibody served goat anti-mouse IgG-HRP at a dilution of 1:5000. Finally, ECL reagent was utilized for detection. • Figure 4C. […] As primary antibodies Purified mouse anti-β-catenin and β-actin were used at a dilution of 1:1000 and as secondary antibody served goat anti-mouse IgG-HRP at a dilution of 1:5000. Finally, ECL reagent was utilized for detection. • Figure 5. […] Results represent data from two separate experiments. Data are shown as mean. • Figure 6. […] BALB/c mice were injected with 5x10^5 MPC11 myeloma cells subcutaneously. (A) Tumor growth and (B) overall survival were measured. Six animals were assayed per group.
All animal experiments were done at least in duplicate with groups of 6 BALB/c mice (Charles River, Sulzfeld, Germany). 5x10^5 MCP11 murine myeloma cells were injected per mouse subcutaneously into Balb/c mice. Mice were treated orally with 450µg/day CIC and 750 µg lenalidomide/day, respectively. Overall survival and tumor growth were measured. Tumor volume was calculated as follows: volume = length x width^2 x 0,52. Animals were killed when tumor volume reached 2000 mm^3.
• Figure 7. […] 1x10^5 cells were cultured with different compounds for three days. The concentration of thalidomide was U266 160µM for U266, RPMI 20µM for RPMI, and OPM 40µM for OPM cells. Then cell viability was measured by DIOC6 staining in flow cytometry. Results represent data from three, two and five separate experiments, respectively. Separate U266 n=3, RPMI n=2, OPM n=5 experiments. Data are shown as mean ± SD. • Figure 8. […] 1x10^5 OPM cells were cultured with the different compounds for three days. The concentration of lenalidomide was 12µM for OPM and 80µM for RPMI cells. Then cell viability was measured by DIOC6 staining in flow cytometry. Results represent data from eight and five OPM n=8, RPMI n=5 separate experiments, respectively. Data are shown as mean ± SD. • Figure 9. […] (A) Flow cytometric results. (B) We analyzed the effect of CIC on the Wnt/beta catenin pathway by Western blot. • Figure 10A. Western Blot analysis for the detection of β-catenin in myeloma cell lines under normal conditions. The myeloma cell lines RPMI 8226, KMS-18 and U266 were analyzed according to their β-catenin expression. • Figure 10B.

For another experiment, the system named is lymphoma cell lines. Nature of the experiment: Cell viability by DiOC6 staining in lymphoma cell lines. Conditions: result in words. The experiment is classed as cell-based, human. As for the experimental part:
as §1
PBL derived from healthy individuals were used as controls. […] ND, not done.

The next experiment has as its system β-catenin. The experiment can be described thus: Western blot, β-catenin expression in RPMI 8226 cells. The class given is cell-based, human. Conditions: RPMI 8226 cells treated for 24h. As for the experimental part: Western blot was performed as described recently^16.
• Figure 1. […] Data are shown as mean ± SD. • Figure 2. […] Data are shown as mean ± SD. • Figure 3. […] (A) Flow cytometric results. […] Finally, ECL reagent was utilized for detection. • Figure 4C. […] Finally, ECL reagent was utilized for detection. • Figure 5. Effect of EA on viability of myeloma primary cells. […] Results represent data from two separate experiments. Data are shown as mean. • Figure 6. […] (A) Tumor growth and (B) overall survival were measured. Six animals were assayed per group.
Western blot was performed as described recently.
• Figure 7. […] Data are shown as mean ± SD. • Figure 8. […] Data are shown as mean ± SD. • Figure 9. Effect of CIC on the Wnt/beta catenin pathway. (A) Flow cytometric results. […] Finally, ECL reagent was utilized for detection. • Figure 10C. […] Finally, ECL reagent was utilized for detection. • Figure 11. […] (A) Tumor growth and (B) overall survival were measured. Six animals were assayed per group. HD CIC.
(In general: Immunoblotting shows a protein as a band on a membrane.)

Where two headings read alike, the source gives them in different places.

Turning to `Cc1cc(C2CCCCC2)n(O)c(=O)c1` [CIC, ciclopirox olamine], in experiment [1], the “most effective concentration to initialize cell death” value is 30 µM. Moreover, the Tumor growth entry with MPC11 myeloma cells (oral 450µg/day CIC, compared to control mice) was “significantly reduced”. Moreover, the “viability of lymphoma cell lines in vitro” value in the experiment with lymphoma cell lines is “significantly (p<0.05) decreased”. The β-catenin expression entry in the experiment with β-catenin is reported as “slightly decreased”.
For the molecule `C=C(CC)C(=O)c1ccc(OCC(=O)O)c(Cl)c1Cl` [EA, 2-[2,3-dichloro-4-(2-methylidenebutanoyl)phenoxy] acetic acid], in experiment [1], the “most effective concentration to initialize cell death” value is recorded as 30 µM. In the experiment with MPC11 myeloma cells (oral 450µg/day EA, compared to mice treated with lenalidomide alone, p<0.001), the Tumor growth entry is given as “significantly reduced”. Moreover, the “viability of lymphoma cell lines in vitro” value in the experiment with lymphoma cell lines was “significantly (p<0.05) decreased”. Besides, the β-catenin expression entry with β-catenin is “slightly increased”.
